Assay results from PubChem BioAssay (NCI).
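Interpolation was linear, between the two tested concentrations surrounding the appropriate level; five concentrations were tested over 48 hours in 96-well plates. Definition used: TGI = concentration required for complete inhibition of growth.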

Assays:
Test in all cases: NCI anticancer screen, dose series, 48 h
NCI-H522 lung = system: NCI-H522 lung
COLO 205 colon = system: COLO 205 colon
NCI/ADR-RES ovarian = system: NCI/ADR-RES ovarian
786-0 renal = system: 786-0 renal
OVCAR-4 ovarian = system: OVCAR-4 ovarian
NCI-H226 lung = system: NCI-H226 lung
MDA-N = system: MDA-N
OVCAR-5 ovarian = system: OVCAR-5 ovarian
NCI-H460 lung = system: NCI-H460 lung
HOP-92 NSCLC = system: HOP-92 NSCLC
SF-295 CNS = system: SF-295 CNS
TK-10 renal = system: TK-10 renal
IGROV1 ovarian = system: IGROV1 ovarian
HCT-116 colon = system: HCT-116 colon
SF-268 CNS = system: SF-268 CNS
BT-549 breast = system: BT-549 breast
RXF 393 renal = system: RXF 393 renal
NCI-H23 lung = system: NCI-H23 lung
MDA-MB-231 breast = system: MDA-MB-231 breast
K-562 leukemia = system: K-562 leukemia
SK-MEL-2 melanoma = system: SK-MEL-2 melanoma
MALME-3M melanoma = system: MALME-3M melanoma
SF-539 CNS = system: SF-539 CNS
LOX IMVI melanoma = system: LOX IMVI melanoma
HCC-2998 colon = system: HCC-2998 colon
SR leukemia = system: SR leukemia
ACHN renal = system: ACHN renal
UACC-62 melanoma = system: UACC-62 melanoma
CAKI-1 renal = system: CAKI-1 renal
MOLT-4 leukemia = system: MOLT-4 leukemia
MCF7 breast = system: MCF7 breast
UO-31 renal = system: UO-31 renal
HCT-15 colon = system: HCT-15 colon
SNB-19 CNS = system: SNB-19 CNS
PC-3 prostate = system: PC-3 prostate
HT29 colon = system: HT29 colon
RPMI-8226 leukemia = system: RPMI-8226 leukemia
OVCAR-3 ovarian = system: OVCAR-3 ovarian
CCRF-CEM leukemia = system: CCRF-CEM leukemia
KM12 colon = system: KM12 colon
OVCAR-8 ovarian = system: OVCAR-8 ovarian
SK-MEL-28 melanoma = system: SK-MEL-28 melanoma
MDA-MB-435 = system: MDA-MB-435
U251 CNS = system: U251 CNS
HOP-62 NSCLC = system: HOP-62 NSCLC
UACC-257 melanoma = system: UACC-257 melanoma
SK-OV-3 ovarian = system: SK-OV-3 ovarian
DU-145 prostate = system: DU-145 prostate
A498 renal = system: A498 renal
T-47D breast = system: T-47D breast
HL-60(TB) leukemia = system: HL-60(TB) leukemia
M14 melanoma = system: M14 melanoma
SN12C renal = system: SN12C renal
SW-620 colon = system: SW-620 colon
EKVX NSCLC = system: EKVX NSCLC
A549 NSCLC = system: A549 NSCLC
SK-MEL-5 melanoma = system: SK-MEL-5 melanoma

In the case of `CCCC(=O)Oc1c2ccsc2c(OC(=O)CCC)c2ccsc12`, the TGI (NCI-H522 lung) is reported as 4.85 µM, the TGI (COLO 205 colon) is reported as 19.7 µM and the TGI (NCI/ADR-RES ovarian) is reported as 4.55 µM. It also gave a TGI (786-0 renal) of 8.04 µM, a TGI (OVCAR-4 ovarian) of 5.7 µM and a TGI (NCI-H226 lung) of 7.15 µM. It also gave a TGI (MDA-N) of 725 nM, a TGI (OVCAR-5 ovarian) of 7.36 µM and a TGI (NCI-H460 lung) of 3.12 µM. For the same compound, the TGI (HOP-92 NSCLC) was 3.06 µM, the TGI (SF-295 CNS) was 885 nM and the TGI (TK-10 renal) was 7.67 µM. It also gave a TGI (IGROV1 ovarian) of 6.87 µM, a TGI (HCT-116 colon) of 4.82 µM and a TGI (SF-268 CNS) of 10.7 µM. It also gave a TGI (BT-549 breast) of 2830 nM, a TGI (RXF 393 renal) of 5.86 µM and a TGI (NCI-H23 lung) of 3640 nM. For the same compound, the TGI (MDA-MB-231 breast) was 10.3 µM, the TGI (K-562 leukemia) was 8.46 µM and the TGI (SK-MEL-2 melanoma) was 1860 nM. It also gave a TGI (MALME-3M melanoma) of 0.699 µM, a TGI (SF-539 CNS) of 2160 nM and a TGI (LOX IMVI melanoma) of 10.7 µM. The TGI (HCC-2998 colon) was 6.71 µM, the TGI (SR leukemia) was 7.32 µM and the TGI (ACHN renal) was 9.99 µM. For the same compound, the TGI (UACC-62 melanoma) was 2070 nM, the TGI (CAKI-1 renal) was 11.7 µM and the TGI (MOLT-4 leukemia) was 7.63 µM. For the same compound, the TGI (MCF7 breast) was 7.55 µM, the TGI (UO-31 renal) was 5.11 µM and the TGI (HCT-15 colon) was 4.59 µM. It also gave a TGI (SNB-19 CNS) of 5.28 µM, a TGI (PC-3 prostate) of 3.52 µM and a TGI (HT29 colon) of 12 µM. For the same compound, the TGI (RPMI-8226 leukemia) was 5.48 µM, the TGI (OVCAR-3 ovarian) was 4.5 µM and the TGI (CCRF-CEM leukemia) was 9.13 µM. For the same compound, the TGI (KM12 colon) was 13.8 µM, the TGI (OVCAR-8 ovarian) was 2020 nM and the TGI (SK-MEL-28 melanoma) was 1590 nM. It also gave a TGI (MDA-MB-435) of 586 nM, a TGI (U251 CNS) of 4.4 µM and a TGI (HOP-62 NSCLC) of 2900 nM. It also gave a TGI (UACC-257 melanoma) of 1.82 µM, a TGI (SK-OV-3 ovarian) of 10.4 µM and a TGI (DU-145 prostate) of 1470 nM. For the same compound, the TGI (A498 renal) was 7.34 µM, the TGI (T-47D breast) was 12.1 µM and the TGI (HL-60(TB) leukemia) was 3.79 µM. For the same compound, the TGI (M14 melanoma) was > 12.8 µM, the TGI (SN12C renal) was 2.98 µM and the TGI (SW-620 colon) was 8.9 µM. The TGI (EKVX NSCLC) was 5.2 µM and the TGI (A549 NSCLC) was 6.84 µM.
For `CC[C@@]1(O)C(=O)OCc2c1cc1n(c2=O)Cc2c-1nc1ccccc1c2/C=N\NC(=O)C(N)Cc1ccc(O)cc1` (some centres not stated), the TGI (NCI-H522 lung) was 5.21 µM, the TGI (COLO 205 colon) was > 31.6 µM and the TGI (786-0 renal) was 6.55 µM. The TGI (OVCAR-4 ovarian) was > 31.6 µM, the TGI (NCI-H226 lung) was 2.64 µM and the TGI (MDA-N) was > 31600 nM. It also gave a TGI (NCI-H460 lung) of 10.8 µM, a TGI (HOP-92 NSCLC) of 5.64 µM and a TGI (SF-295 CNS) of 3160 nM. For the same compound, the TGI (TK-10 renal) was > 31.6 µM, the TGI (HCT-116 colon) was 4.44 µM and the TGI (BT-549 breast) was > 31600 nM. For the same compound, the TGI (RXF 393 renal) was 4.38 µM, the TGI (NCI-H23 lung) was 1820 nM and the TGI (MDA-MB-231 breast) was > 31.6 µM. The TGI (K-562 leukemia) was > 100 µM, the TGI (MALME-3M melanoma) was 7.8 µM and the TGI (SF-539 CNS) was 217 nM. The TGI (LOX IMVI melanoma) was 2.77 µM, the TGI (SR leukemia) was 0.396 µM and the TGI (ACHN renal) was 2.75 µM. For the same compound, the TGI (UACC-62 melanoma) was 1710 nM, the TGI (MOLT-4 leukemia) was 1.59 µM and the TGI (UO-31 renal) was 8.76 µM. The TGI (HCT-15 colon) was > 31.6 µM, the TGI (SNB-19 CNS) was > 31.6 µM and the TGI (RPMI-8226 leukemia) was 5.62 µM. It also gave a TGI (CCRF-CEM leukemia) of 1.15 µM, a TGI (U251 CNS) of 5.04 µM and a TGI (UACC-257 melanoma) of 18.9 µM. For the same compound, the TGI (SK-MEL-5 melanoma) was 2700 nM, the TGI (SK-OV-3 ovarian) was 9.77 µM and the TGI (A498 renal) was 3.65 µM. For the same compound, the TGI (T-47D breast) was > 25.7 µM, the TGI (HL-60(TB) leukemia) was 4.69 µM and the TGI (SN12C renal) was 7.75 µM.
